Where two headings read alike, the source gives them in different places.
Assays:
Type in all cases: cell-based
human GLUT1 = biological target: T1, human GLUT1 (Homo sapiens, UniProt P11166); assay: [3H]-deoxy-D-glucose uptake assay, GLUT1; conditions: [3H]-deoxy-D-glucose uptake in HEK293 cells stably expressing human GLUT1
T1 construct: expressed in transfected cells
T1 sequence (P11166 1-492): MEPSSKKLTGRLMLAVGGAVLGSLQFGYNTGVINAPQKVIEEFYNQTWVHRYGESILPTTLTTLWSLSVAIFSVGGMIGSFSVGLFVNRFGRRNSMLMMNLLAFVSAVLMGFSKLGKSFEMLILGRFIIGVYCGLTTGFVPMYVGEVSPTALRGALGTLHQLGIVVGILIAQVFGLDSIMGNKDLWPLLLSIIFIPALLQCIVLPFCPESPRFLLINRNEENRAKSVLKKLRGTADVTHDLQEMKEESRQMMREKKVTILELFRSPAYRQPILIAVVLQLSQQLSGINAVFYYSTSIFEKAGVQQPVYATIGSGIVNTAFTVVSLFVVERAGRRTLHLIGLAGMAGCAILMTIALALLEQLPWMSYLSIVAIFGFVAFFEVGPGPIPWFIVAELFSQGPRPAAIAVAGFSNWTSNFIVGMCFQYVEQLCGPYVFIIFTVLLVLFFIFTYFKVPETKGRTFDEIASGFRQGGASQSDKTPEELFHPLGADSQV
Outline: (§1)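 HEK293 cells stably overexpressing human GLUT1 or GLUT2, seeded at 60,000 per well, treated with compounds in glucose-free uptake buffer for 30 min at 37 °C. [3H]-deoxy-D-glucose uptake quantified by scintillation counting after ice-cold PBS washes; IC50 determined.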

A549 cells = assay: Lactate production assay (lactate secretion, 5 or 17 mM glucose); conditions: Homo sapiens, 4 hours incubation
Method: A549 cells were grown in DMEM/F12K+L-Glutamine supplemented with 10% foetal bovine serum. Cells were re-suspended in assay media (DMEM without phenol red, pyruvate and glucose, 10% foetal bovine serum, 2 mM L-Glutamine and 5 or 17 mM glucose) and seeded at 40×10^3 cells per well into 96-well plates and incubated overnight. Increasing concentrations of the test compound (compound 155) and vehicle control were added and incubated for 4 hours at 37° C., 5% CO2. Lactate reagent was added (Trinity Biotech), the plates were incubated in the dark for 7 min at room temperature before capturing the absorbance at 540 nm using a plate reader.

[1] = tested on: A549 adenocarcinoma NucLight Red cells; assay: Cell growth (proliferation) assay, NucLight Red, IncuCyte; conditions: Homo sapiens, AUC analysis of first 24 hours of compound exposure
Method: (§2) A549 adenocarcinoma NucLight Red cells were grown in Ham's F12K medium supplemented with 10% foetal bovine serum, 2 mM Glutamax, 1% pen/strep and 0.5 μg ml-l puromycin. Cells were seeded at 1×10^4 cells per well into 384-well microtitre-plates with media containing 5 mM (FIGS. 3A and 3C) or 17 mM glucose (FIGS. 3B and 3D). The cells were left to adhere before the addition of increasing concentration of test compound (compound 155) and vehicle control. The cells stably expressed Essen CellPlayer NucLight Red Fluorescent Protein to allow measurement of cell proliferation (FIGS. 3 A and B). The culture medium contained Essen CellPlayer 96-well Kinetic Caspase 3/7-reagent and Biotium DEVD-NucView 488 to allow measurement of apoptosis induction (FIGS. 3 C and D). Cells were monitored continuously for 48 hours of compound exposure using Essen IncuCyte.
(§3) pIC50 values for the proliferation and apoptosis assays were derived from area under the curve (AUC) analysis of data from the first 24 hours of compound exposure.

[2] = tested on: A549 adenocarcinoma NucLight Red cells; assay: Apoptosis induction assay, Caspase 3/7 reagent, IncuCyte; conditions: Homo sapiens, Caspase 3/7, AUC analysis of first 24 hours of compound exposure
Method: as §2, §3

[3] = tested on: [3H]-deoxy-D-glucose uptake; assay: Glucose uptake assay with compound 155 (inhibition of [3H]-deoxy-D-glucose uptake, FIG. 2A); conditions: read-out: Glucose Uptake pIC50 (converted)
human GLUT2 = biological target: T2, human GLUT2 (Homo sapiens, UniProt P11168); assay: [3H]-deoxy-D-glucose uptake assay, GLUT2; conditions: [3H]-deoxy-D-glucose uptake in HEK293 cells stably expressing human GLUT2
T2 construct: expressed in transfected cells
T2 sequence (P11168 1-524): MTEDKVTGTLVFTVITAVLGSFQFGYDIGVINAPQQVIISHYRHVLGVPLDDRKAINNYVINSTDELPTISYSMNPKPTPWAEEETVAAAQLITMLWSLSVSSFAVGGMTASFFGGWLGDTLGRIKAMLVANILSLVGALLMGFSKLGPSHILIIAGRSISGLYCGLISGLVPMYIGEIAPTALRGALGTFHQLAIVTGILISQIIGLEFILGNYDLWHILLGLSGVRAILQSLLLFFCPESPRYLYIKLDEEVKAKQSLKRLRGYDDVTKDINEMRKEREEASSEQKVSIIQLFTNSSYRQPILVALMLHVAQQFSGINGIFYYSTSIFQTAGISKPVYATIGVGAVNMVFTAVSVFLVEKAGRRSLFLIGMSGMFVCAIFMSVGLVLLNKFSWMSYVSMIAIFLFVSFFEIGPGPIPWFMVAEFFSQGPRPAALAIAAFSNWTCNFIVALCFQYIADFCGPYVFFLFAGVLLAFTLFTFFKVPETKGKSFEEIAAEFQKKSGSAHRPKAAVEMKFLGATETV
Outline: as §1

human GLUT3 = biological target: T3, human GLUT3 (Homo sapiens, UniProt P11169); assay: [3H]-deoxy-D-glucose uptake assay, GLUT3; conditions: [3H]-deoxy-D-glucose uptake in HEK293 cells stably expressing human GLUT3
T3 construct: expressed in transfected cells
T3 sequence (P11169 1-496): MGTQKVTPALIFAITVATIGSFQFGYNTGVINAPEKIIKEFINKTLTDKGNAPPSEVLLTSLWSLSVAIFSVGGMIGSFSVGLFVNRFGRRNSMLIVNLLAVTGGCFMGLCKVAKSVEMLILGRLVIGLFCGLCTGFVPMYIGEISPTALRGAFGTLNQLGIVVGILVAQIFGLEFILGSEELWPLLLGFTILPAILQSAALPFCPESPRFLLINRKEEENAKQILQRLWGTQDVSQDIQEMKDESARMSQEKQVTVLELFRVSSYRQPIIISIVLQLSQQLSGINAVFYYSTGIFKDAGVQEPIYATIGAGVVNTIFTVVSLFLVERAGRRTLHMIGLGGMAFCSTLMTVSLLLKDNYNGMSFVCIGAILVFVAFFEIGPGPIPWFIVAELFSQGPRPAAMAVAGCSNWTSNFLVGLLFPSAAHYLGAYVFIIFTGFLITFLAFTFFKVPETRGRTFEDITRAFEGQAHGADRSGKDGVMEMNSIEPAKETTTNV
Outline: (§4)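 HEK293 cells stably overexpressing human GLUT3 or GLUT4, preincubated with compound 30 min at 37 °C in glucose-free HEPES buffer pH 7.4. [3H]-deoxy-D-glucose (125 μM final) uptake then run 30 min at 37 °C, quantified by scintillation counting; IC50 determined.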

human GLUT4 = biological target: T4, human GLUT4 (Homo sapiens, UniProt P14672); assay: [3H]-deoxy-D-glucose uptake assay, GLUT4; conditions: [3H]-deoxy-D-glucose uptake in HEK293 cells stably expressing human GLUT4
T4 construct: expressed in transfected cells
T4 sequence (P14672 1-509): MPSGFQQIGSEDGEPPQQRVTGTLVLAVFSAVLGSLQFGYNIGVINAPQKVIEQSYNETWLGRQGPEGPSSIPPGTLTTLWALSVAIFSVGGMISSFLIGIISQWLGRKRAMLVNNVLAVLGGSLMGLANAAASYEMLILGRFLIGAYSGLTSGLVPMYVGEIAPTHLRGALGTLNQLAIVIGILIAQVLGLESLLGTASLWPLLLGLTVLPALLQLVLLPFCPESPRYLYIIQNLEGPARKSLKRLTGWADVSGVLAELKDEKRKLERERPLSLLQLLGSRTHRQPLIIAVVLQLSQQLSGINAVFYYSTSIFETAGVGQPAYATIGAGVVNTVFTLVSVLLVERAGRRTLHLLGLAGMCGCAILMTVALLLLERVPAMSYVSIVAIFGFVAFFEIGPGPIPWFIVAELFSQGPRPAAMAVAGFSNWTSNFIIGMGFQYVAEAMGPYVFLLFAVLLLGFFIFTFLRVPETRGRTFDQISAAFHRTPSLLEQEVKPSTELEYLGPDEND
Outline: as §4

| SMILES | GLUT1 pIC50 (human GLUT1) | IC50 (A549 cells; 5 mM glucose, read-out: Lactate Secretion (5 mM glucose) pIC50 (converted)) | IC50 (A549 cells; 17 mM glucose, read-out: Lactate Secretion (17 mM glucose) pIC50 (converted)) | IC50 ([1]; 5 mM glucose, read-out: Proliferation (5 mM glucose) pIC50 (converted)) | IC50 ([1]; 17 mM glucose, read-out: Proliferation (17 mM glucose) pIC50 (converted)) | IC50 ([2]; 5 mM glucose, read-out: Apoptosis (5 mM glucose) pIC50 (converted)) | IC50 ([2]; 17 mM glucose, read-out: Apoptosis (17 mM glucose) pIC50 (converted)) | IC50 [3] | GLUT2 pIC50 (human GLUT2) | GLUT3 pIC50 (human GLUT3) | GLUT4 pIC50 (human GLUT4) |
| --- | --- | --- | --- | --- | --- | --- | --- | --- | --- | --- | --- |
| N#Cc1ccccc1-c1ccc2nc(-c3ccc(Cl)cc3)c(CN3CCN(C(=O)c4cccc(F)c4)CC3)n2c1 [Compound 155] | +++ (pIC50 ≧ 6.00) | 77.6 nM | 398 nM | < 126 nM | 380 nM | 316 nM | 813 nM | 25.7 nM | – | – | – |
| CN(c1ccc2nc(-c3ccc(Cl)cc3Cl)c(CN3CCN(C(=O)c4ccnnc4)CC3)n2c1)S(C)(=O)=O [Compound 370] | +++ (pIC50 ≧ 6.00) | – | – | – | – | – | – | – | +++ (pIC50 ≧ 6.00) | +++ (pIC50 ≧ 6.00) | +++ (pIC50 ≧ 6.00) |
| CN(c1ccc2nc(-c3ccc(Cl)cc3Cl)c(CN3CCN(C(=O)C4CCOCC4)CC3)n2c1)S(C)(=O)=O [Compound 372] | +++ (pIC50 ≧ 6.00) | – | – | – | – | – | – | – | +++ (pIC50 ≧ 6.00) | +++ (pIC50 ≧ 6.00) | +++ (pIC50 ≧ 6.00) |
| CS(=O)(=O)Nc1ccc2nc(-c3ccc(Cl)cc3Cl)c(CN3CCN4C(=O)CCC4C3)n2c1 (centres unmarked) [Compound 373] | +++ (pIC50 ≧ 6.00) | – | – | – | – | – | – | – | +++ (pIC50 ≧ 6.00) | +++ (pIC50 ≧ 6.00) | +++ (pIC50 ≧ 6.00) |
| CN(c1ccc2nc(-c3ccc(Cl)cc3Cl)c(CN3CCN4C(=O)CCC4C3)n2c1)S(C)(=O)=O (centres unmarked) [Compound 374] | +++ (pIC50 ≧ 6.00) | – | – | – | – | – | – | – | +++ (pIC50 ≧ 6.00) | +++ (pIC50 ≧ 6.00) | +++ (pIC50 ≧ 6.00) |
| CSc1ccc2nc(-c3ccc(Cl)cc3)c(CN3CCN(C(C)=O)CC3)n2c1 [Compound 377] | ++ (pIC50 5.00-5.99) | – | – | – | – | – | – | – | ++ (pIC50 5.00-5.99) | +++ (pIC50 ≧ 6.00) | +++ (pIC50 ≧ 6.00) |
| CC(=O)N1CCN(Cc2c(-c3ccc(Cl)cc3)nc3ccc(S(C)(=O)=O)cn23)CC1 [Compound 378] | +++ (pIC50 ≧ 6.00) | – | – | – | – | – | – | – | +− (pIC50 < 4.00) | +++ (pIC50 ≧ 6.00) | +++ (pIC50 ≧ 6.00) |
| CN(c1ccc2nc(-c3ccc(Cl)cc3Cl)c(CN3CCN(C(=O)C(C)(C)O)CC3)n2c1)S(C)(=O)=O [Compound 381] | +++ (pIC50 ≧ 6.00) | – | – | – | – | – | – | – | ++ (pIC50 5.00-5.99) | +++ (pIC50 ≧ 6.00) | +++ (pIC50 ≧ 6.00) |
| CC(=O)N1CCN(Cc2c(-c3ccc(Cl)cc3)nc3ccc(S(=O)(=O)C(C)C)cn23)CC1 [Compound 382] | +++ (pIC50 ≧ 6.00) | – | – | – | – | – | – | – | ++ (pIC50 5.00-5.99) | +++ (pIC50 ≧ 6.00) | +++ (pIC50 ≧ 6.00) |
| CCS(=O)(=O)c1ccc2nc(-c3ccc(Cl)cc3)c(CN3CCN(C(C)=O)CC3)n2c1 [Compound 385] | +++ (pIC50 ≧ 6.00) | – | – | – | – | – | – | – | ++ (pIC50 5.00-5.99) | +++ (pIC50 ≧ 6.00) | +++ (pIC50 ≧ 6.00) |
